# According to patent publication US10793567B2, “Bicyclic inhibitors of histone deacetylase” (Rodin Therapeutics, Inc., priority 2017, dated 2020):
# Read-outs that look alike come from different tables or passages of the source.
# Tests used:
# [1] = test system: human erythroid progenitors (CFU-E, BFU-E); assay: Erythroid CFU assay (colony forming cell assay, bone marrow); format: cell-based; settings: 14 days in culture
# Description: (§1) Compounds were tested to evaluate the potential effects on human erythroid and myeloid progenitors using colony forming cell assays. Clonogenic progenitors of human erythroid (CFU-E, BFU-E), granulocyte-monocyte (CFU-GM) and multipotential (CFU-GEMM) lineages were assessed in a semi-solid methylcellulose-based media formulation containing rhlL-3 (10 ng/mL), rhGM-SCF (10 ng/mL), rhSCF (50 ng/mL) and Epo (3 U/mL).
# (§2) Normal human bone marrow light density cells derived from normal bone marrow (NorCal Biologics, California), were stored in the gaseous phase of liquid nitrogen (−152° C.) until required for the assay. On the day of the experiment, the cells were thawed rapidly, the contents of each vial was diluted in 10 mL of Iscove's modified Dulbecco's medium containing 10% fetal bovine serum (IMDM+10% FBS) and washed by centrifugation (approximately 1200 r.p.m. for 10 minutes, room temperature). The supernatant was discarded and the cell pellets resuspended in a known volume of IMDM+10% FBS. A cell count (3% glacial acetic acid) and viability assessment (trypan blue exclusion test) was performed for the bone marrow sample.
# (§3) On the day of the experiment, the compounds were dissolved in DMSO to a stock concentration of 10 mM. Serial dilutions were prepared from the stock concentration to achieve concentrations of 2 and 0.4 mM. When added to the methylcellulose-based media at 1:1000 (v/v), the final test concentrations of 10, 2 and 0.4 μM were achieved. Additionally, 5-FU was evaluated at 1.0, 0.1 and 0.01 μg/mL.
# (§4) Clonogenic progenitors of the human erythroid (CFU-E and BFU-E) and myeloid (CFU-GM) lineages were set up in the methylcellulose-based media formulations described above. All compounds were added to the medium to give the final desired concentrations (10, 2 and 0.4 μM). 5-Fluorouracil (Sigma Aldrich) was used as a positive control for progenitor proliferation (inhibition of colony growth) and was introduced to the human bone marrow cultures at 1.0, 0.1, and 0.01 μg/mL. Solvent control cultures (containing no compound but 0.1% DMSO) as well as standard controls (containing no compound and no DMSO) were also initiated.
# (§5) Human myeloid and erythroid progenitor assays were initiated at 2.0×10^4 cells per culture. Following 14 days in culture, myeloid and erythroid colonies were assessed microscopically and scored by trained personnel. The colonies were divided into the following categories based on size and morphology: CFU-E, BFU-E, CFU-GM and CFU-GEMM.
# (§6) The mean±one standard deviation of three replicate cultures was calculated for progenitors of each category (CFU-E, BFU-E, etc.). Two-tailed t-tests were performed to assess if there was a difference in the number of colonies generated between solvent control and treated cultures. Due to the potential subjectivity of colony enumeration, a p value of less than 0.01 is deemed significant. To calculate the concentration of 50% inhibition of colony growth (IC50) for each compound, a dose response curve was generated plotting the log of the compound concentration versus the percentage of control colony growth using XLfit software (IDBS). The concentration of 50% inhibition of colony growth (IC50) was calculated based on the sigmoid curve fit using Dose-Response, One-Site Model formula: y=A+[(B−A)/(1+((C/x)^D))], where A=the initial value (baseline response), B=maximum response, C=center (drug concentration that provokes a response halfway between A and B) and D=slope of the curve at midpoint. Further, plots and additional dose response curves were generated using GraphPad Prism 7.0.
# (§7) Erythroid (CFU-E and BFU-E), myeloid (CFU-GM) and multi-potential (CFU-GEMM) colony enumeration was performed by trained personnel. The distribution of colony types as well as general colony and cellular morphology was analyzed. For statistical analysis colony numbers in compound treated cultures were compared to the solvent control cultures. […]
# [2] = test system: human myeloid progenitors (CFU-GM); assay: Myeloid CFU assay (colony forming cell assay, bone marrow); format: cell-based; settings: 14 days in culture
# Description: as §1, §2, §3, §4, §5, §6, §7
# [3] = Brain and plasma exposure following IV and PO administration to mice; format: in vivo; settings: mice; for half-life / clearance: mouse, plasma; for clearance: read-out: IV PK Cl (converted); for Projected free brain @ 10 mpk / Brain Cmax @ 10 mpk: 10 mg/kg PO
# Description: Compounds were dosed in mice at either 10 mg/kg or 30 mg/kg PO, and were dosed at 1 mg/kg IV. Three animals for collection at each time point for plasma via bleeding at 0.25, 0.5, 1, 4, 12 and 24 h. Terminal bleeding for plasma and sampling for brain at 0.25, 0.5, 1, 4, 12 and 24 h (also three animals per brain exposure time point group). Total of six time points for plasma and six time points for brain.
# Plasma: The animal was restrained manually at the designated time points, approximately 150 μL blood/time point was collected into K2EDTA tube via retro orbital puncture or cardiac puncture under anesthesia with Isoflurane. The blood sample was centrifuged (2000 g, 4° C., 5 min) to generate plasma within 30 min after bleeding.
# Brain: At the designated time points, a mid-line incision was made in the animals scalp and the skin was retracted. Using small bone cutters and rongeurs, removed the skull overlying the brain. Removed the brain using a spatula and rinse with cold saline. Placed the brain in screw-top tubes, and then stored the tubes under −70° C. until analysis.
# [4] = target: T1, HDAC2 (Homo sapiens (Human), UniProt Q92769); assay: HDAC2 enzymatic inhibition assay in SY5Y cell lysate (HDAC-Glo 2); format: cell-based; settings: SH-SY5Y cells, five hours incubation
# T1 sequence (Q92769 whole entry): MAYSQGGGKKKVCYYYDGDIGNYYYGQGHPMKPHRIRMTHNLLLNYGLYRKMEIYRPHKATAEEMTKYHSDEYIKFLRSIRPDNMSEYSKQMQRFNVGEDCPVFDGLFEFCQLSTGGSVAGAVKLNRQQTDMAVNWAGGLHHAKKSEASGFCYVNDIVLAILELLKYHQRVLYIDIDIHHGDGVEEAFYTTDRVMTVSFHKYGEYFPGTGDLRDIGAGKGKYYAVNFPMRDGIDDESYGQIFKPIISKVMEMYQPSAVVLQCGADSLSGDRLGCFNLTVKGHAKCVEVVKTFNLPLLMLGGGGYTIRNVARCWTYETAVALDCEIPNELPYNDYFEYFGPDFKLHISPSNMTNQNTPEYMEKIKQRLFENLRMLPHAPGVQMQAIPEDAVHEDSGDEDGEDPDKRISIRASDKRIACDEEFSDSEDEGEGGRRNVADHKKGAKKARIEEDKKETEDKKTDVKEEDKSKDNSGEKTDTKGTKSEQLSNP
# Description: SH-SY5Y cells (Sigma) were cultured in Eagle's Modified Essential Medium supplemented with 10% fetal bovine serum and pen/strep. Twenty-four hours prior to compound dosing 20 uL of cells were plated in white 384 well plates at a density of 1,500 cells/well. Compounds were serially diluted in neat DMSO and then diluted 1:100 v/v into media without FBS and mixed. Media was removed from the plated cells and the diluted compounds in serum free media (1% v/v final DMSO) were added and incubated at 37.0 for five hours. Ten uL of HDAC-Glo 2 reagent with 0.1% Triton X-100 was then added, the plate was mixed and allowed to develop at room temperature for 100 minutes. Plates were then read with a Spectramax LMax luminometer employing a 0.4 s integration time. Dose response curves were constructed with normalized data where CI-994 at 100 uM was defined as 100% inhibition and DMSO alone as 0% inhibition.
# [5] = target: T1, HDAC2; assay: HDAC2 enzymatic assay (Caliper LabChip, peptide deacetylation); format: biochemical; settings: 17 hours, 25° C.
# Description: The following describes an assay protocol for measuring the deacetylation of a peptide substrate by the enzymes HDAC2 or HDAC1. Enzyme, substrate, and cofactors are combined in a well of a microtiter plate and incubated for […] at 25° C. At the end of the incubation, the reaction is quenched by the addition of an SDS-containing buffer. Substrate and product are separated and quantified electrophoretically using the microfluidic-based LabChip 3000 Drug Discovery System from Caliper Life Sciences. The peptide substrate used in this assay is FAM-TSRHK(AC)KL-CONH2 (FAM is carboxyfluorescein). Peptide should be >98% purity by Capillary Electrophoresis. • 1. To a well of a 384-well plate, add 5 μL of 2× enzyme buffer. Using Labcyte Echo 550, add 100 nl compound. Enzyme and compound may be pre-incubated at this time if desired. • 2. Add 5 μL of 2× substrate buffer. • 3. Incubate plate at 25° C. for 17 hours. • 4. Terminate reaction by adding 40 μL of 1.55× stop buffer. • 5. Create job on a Caliper LabChip® 3000 Drug Discovery System. • 6. […]
# Substrate and product peptides present in each sample are separated electrophoretically using the LabChip 3000 capillary electrophoresis instrument. As substrate and product peptides are separated, two peaks of fluorescence are observed. Change in the relative fluorescence intensity of the substrate and product peaks is the parameter measured, reflecting enzyme activity. Capillary electrophoregramms (RDA acquisition files) are analyzed using HTS Well Analyzer software (Caliper Life Sciences). The […] in each sample is determined as the product to sum ratio (PSR): P/(S+P), where P is the peak height of the product peptide and S is the peak height of the substrate peptide. For each compound, enzyme activity is measured at various concentrations (12 concentrations of compound spaced by 3× dilution intervals). […]
# The IC50 values of inhibitors are determined by fitting the inhibition curves (Pinh versus inhibitor concentration) by 4 parameter sigmoidal dose-response model using XLfit 4 software (IBDS). […]
# [6] = target: HDAC1 (Homo sapiens (Human), UniProt Q13547); assay: HDAC1 enzymatic assay (Caliper LabChip, peptide deacetylation); format: biochemical; settings: 17 hours, 25° C.
# Chain of HDAC1 (Q13547 whole entry): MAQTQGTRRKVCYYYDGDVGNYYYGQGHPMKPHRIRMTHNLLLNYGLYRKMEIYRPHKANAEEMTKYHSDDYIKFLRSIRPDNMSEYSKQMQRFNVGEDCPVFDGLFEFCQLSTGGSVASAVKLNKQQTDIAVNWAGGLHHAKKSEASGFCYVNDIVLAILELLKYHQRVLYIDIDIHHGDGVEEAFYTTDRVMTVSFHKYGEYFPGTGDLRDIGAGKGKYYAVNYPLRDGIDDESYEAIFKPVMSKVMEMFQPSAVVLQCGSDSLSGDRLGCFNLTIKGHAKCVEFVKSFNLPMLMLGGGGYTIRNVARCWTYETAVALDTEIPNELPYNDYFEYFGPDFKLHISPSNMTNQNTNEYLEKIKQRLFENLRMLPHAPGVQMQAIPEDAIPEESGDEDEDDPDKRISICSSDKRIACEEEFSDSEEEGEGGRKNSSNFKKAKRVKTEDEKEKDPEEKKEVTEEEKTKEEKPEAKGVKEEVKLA
# Description: The following describes an assay protocol for measuring the deacetylation of a peptide substrate by the enzymes HDAC2 or HDAC1. Enzyme, substrate, and cofactors are combined in a well of a microtiter plate and incubated for […] at 25° C. At the end of the incubation, the reaction is quenched by the addition of an SDS-containing buffer. Substrate and product are separated and quantified electrophoretically using the microfluidic-based LabChip 3000 Drug Discovery System from Caliper Life Sciences. The peptide substrate used in this assay is FAM-TSRHK(AC)KL-CONH2 (FAM is carboxyfluorescein). Peptide should be >98% purity by Capillary Electrophoresis. • 1. To a well of a 384-well plate, add 5 μL of 2× enzyme buffer. Using Labcyte Echo 550, add 100 nl compound. Enzyme and compound may be pre-incubated at this time if desired. • 2. Add 5 μL of 2× substrate buffer. • 3. Incubate plate at 25° C. for 17 hours. • 4. Terminate reaction by adding 40 μL of 1.55× stop buffer. • 5. Create job on a Caliper LabChip® 3000 Drug Discovery System. • 6. Load the plate and start electrophoresis using blue laser (480 nm) for excitation and green CCD (520 nm) for detection (CCD2). Reaction time=17 hours; Reaction temperature=25° C.
# 1% DMSO (from compound) 1 μM FAM-TSRHK(AC)KL-CONH2 5 nM HDAC Enzyme (specific activity may vary from lot-to-lot, and enzyme concentration may need to be adjusted to yield˜10-20% conversion of substrate to product).
# Substrate and product peptides present in each sample are separated electrophoretically using the LabChip 3000 capillary electrophoresis instrument. As substrate and product peptides are separated, two peaks of fluorescence are observed. Change in the relative fluorescence intensity of the substrate and product peaks is the parameter measured, reflecting enzyme activity. Capillary electrophoregramms (RDA acquisition files) are analyzed using HTS Well Analyzer software (Caliper Life Sciences). The […] in each sample is determined as the product to sum ratio (PSR): P/(S+P), where P is the peak height of the product peptide and S is the peak height of the substrate peptide. For each compound, enzyme activity is measured at various concentrations (12 concentrations of compound spaced by 3× dilution intervals). Negative control samples (0%-inhibition in the absence of inhibitor) and positive control samples (100%-inhibition, in the presence of 20 mM EDTA) are assembled in replicates of four and are used to calculate %-inhibition values for each compound at each concentration. Percent inhibition (Pinh) is determined using following equation: Pinh=(PSR0%−PSRinh)/(PSR0%−PSR100%)*100, where PSRinh is the product sum ratio in the presence of inhibitor, PSR0% is the average product sum ration in the absence of inhibitor and PSR100% is the average product sum ratio in 100%-inhibition control samples.
# The IC50 values of inhibitors are determined by fitting the inhibition curves (Pinh versus inhibitor concentration) by 4 parameter sigmoidal dose-response model using XLfit 4 software (IBDS).
# In the table, “A” indicates a […] of between 0.1 μM and 0.5 μM and “B” a Kd value of greater than 0.5 μM and less than or equal to 5.0 μM.
# [7] = iv, 1 mg/kg, 1 mg/kg IV, read-out: IV PK T1/2 (converted)
# [8] = po, 10 mg/kg, PO, read-out: PO T1/2 (converted)
Structure (SMILES),Erythroid % control @ 10 uM dose [1] [%],Myeloid % control @ 10 uM dose [2] [%],"half-life [3, 7] [min]","half-life [3, 8] [min]",clearance ([3]; 1 mg/kg IV) [mL/min/kg],IC50 [4] [nM],further results
"Nc1ccc(-c2ccc(F)cc2)nc1NC(=O)N1Cc2cncnc2C1 [Comparator 1, reference compound]",47.1,83.9,–,–,–,–,"Projected free brain @ 10 mpk (uM) (*scaled for comparison) ([3]; dosed 30 mg/kg PO, scaled to 10 mg/kg PO): 0.111* uM; Brain Cmax @ 10 mpk ng/g (*scaled for comparison) ([3]; dosed 30 mg/kg PO, scaled to 10 mg/kg PO, brain): 158* ng/g"
"Cn1cc2c(n1)CN(C(=O)Nc1nc(-c3ccc(F)cc3)ccc1N)C2 [Comparator 2, reference compound]",15.7,30.4,–,–,–,–,–
"Cc1cc2c(cn1)CN(C(=O)Nc1nc(-c3ccc(F)cc3)ccc1N)C2 [Comparator 3, reference compound]",25.7,66.1,–,–,–,–,–
"COCc1cc2c(cn1)CN(C(=O)Nc1nc(-c3ccc(F)cc3)ccc1N)C2 [Comparator 5, reference compound]",22.9,58.9,–,–,–,–,–
Nc1ccc(-c2cccs2)nc1NC(=O)N1Cc2cncnc2C1 [Comparator 6],–,–,9.12,33.4,139,–,–
Cc1ncc(-c2ccc(N)c(NC(=O)N3Cc4cn(C)nc4C3)n2)s1 [Compound 4],53,96,112,127,8.93,100 to 1000,Projected free brain @ 10 mpk [3]: 0.479 µM; Brain Cmax @ 10 mpk ([3]; brain): 324 ng/g
Nc1ccc(-c2ccc(F)cc2F)nc1NC(=O)N1Cc2cn(C3COC3)nc2C1 [Compound 6],–,–,–,–,–,100 to 1000,IC50 [5]: 500 to 5000 nM; IC50 [6]: 500 to 5000 nM
Cc1nc2c(n1C)CN(C(=O)Nc1nc(-c3ccc(F)cc3)ccc1N)C2 [Compound 7],–,–,184,177,28.5,100 to 1000,Projected free brain @ 10 mpk [3]: 0.050 µM; Brain Cmax @ 10 mpk ([3]; brain): 102 ng/g
Cn1cc2c(n1)CN(C(=O)Nc1nc(-c3cccnc3)ccc1N)C2 [Compound 11],94,103,452,174,17.8,100 to 1000,Projected free brain @ 10 mpk [3]: 0.664 µM; Brain Cmax @ 10 mpk ([3]; brain): 369 ng/g
Nc1ccc(-c2cccnc2)nc1NC(=O)N1Cc2cnc(CC(F)F)cc2C1 [Compound 15],–,–,–,–,–,100 to 1000,–
Nc1ccc(-c2cccnc2)nc1NC(=O)N1Cc2cnc(C(F)F)cc2C1 [Compound 16],–,–,–,–,–,> 1500,–
